Test results reported in patent publication US9636299B2, “Method for treating diabetic retinopathy” (XAVIER UNIVERSITY OF LOUISIANA, priority 2012, dated 2017).
Residues, ends and D or L forms follow the SMILES beside them.

Assays:
[1] = Corneal permeability of topical 1% apoEdp eye drops in mice, UPLC-MS of pooled aqueous and vitreous humor; format: in vivo; set-up: key to Meas'd conc. / Total: *: No peak detected
Protocol: The apoEdp peptide (SEQ ID NO:3) is rich in cationic amino acids, and the inventor postulated that it may cross the cornea into the anterior and posterior chambers of the eye. […] Thus, apoEdp can be used for non-invasive treatment of posterior eye diseases.
A one percent (1%) solution comprising apoEdp in PBS was prepared. This solution was applied bilaterally via eyedropper to the eyes of mice (n=4). The mice were sacrificed at 0, 1, 2, or 3 hours after application of the solution, and the eyes were enucleated. The aqueous and vitreous humor from each eye was collected and pooled, mixed with 1 mL of 0.1% formic acid solution, and allowed to stand for 5 minutes. The samples were then filtered with a 0.2 μm filter and analyzed with the Acquity UPLC system (Waters Corp., Milford, Mass.) with mass spectrophotometric detection.
Initially, the mass range for the peptide was scanned several peaks corresponding to different charged states of the peptide were found. These peaks included 484.9 m/z, 604.4 m/z, and 805.6 m/z. The 484.9 peak was used for the analysis because it was the strongest peak. For the UPLC analysis, a 2.1 mm×100 mm×1.7 μm BEH300 C4 column was used. A two-component mobile phase was used with component 1 (C1): 0.1% formic Acid, and Component 2 (C2): Acetonitrile with 0.1% formic acid. The flow rate was 0.2 mL/min and gradient elution was used with a linear gradient (see TABLE 2). Retention time for the peptide was 4.6 minutes.

MMP2 = assay: Laser photocoagulation-induced retinal injury in mice, MMP2 real-time RT-PCR; format: in vivo, mouse; settings: apoEdp 40 mg/kg intraperitoneally once each day for 7 days, vs mice without apoEdp
Protocol: Laser Photocoagulation-Induced Retinopathy. Female mice (C57BL/6J), aged 6-8 weeks, were used for retinal laser photocoagulation studies. The mice were treated and maintained in accordance with the ARVO Statement for the Use of Animals in Ophthalmic and Vision Research. The mice were anesthetized by intraperitoneal injection of a mixture of ketamine (100 mg/kg; Warner Lambert Co., Morris Plains, N.J.) and xylazine (10 mg/kg; Bayer AG, Leverkusen, Germany), and the pupils dilated with 2.5% tropicamide (Alcon, Fort Worth, Tex.). […]
RNA Extraction, Reverse Transcription, & PCR. […] Gene expression was measured at RNA level per 100 ng of total RNA using one-step RT-PCR kit (Bio-Rad, Hercules, Calif.). Four host genes (mouse GAPDH, mouse MMP2, mouse HPSE-1 (heparanase-1), and mouse MMP9) were analyzed to confirm relative quantitative expression levels. The primer pairs used were specifically designed and synthesized by Qiagen GmbH, Hilden, Germany (Quantitech Primer assay kit, for each host gene, catalog numbers QT01658692, QT00088396, QT00009555, and QT00040040, respectively). One-step Real-time quantitative RT-PCR reactions were performed in a 50-μL volume containing a solution of 1× supermix (iQ SYBR Green; Bio-Rad, Hercules, Calif.), 1 μM mix of forward and reverse primers, and 5 μL total RNA. […] Relative quantitative expression levels were determined for each gene. […]

[2] = OD (right eye), 0 h after topical 1% apoEdp
[3] = OD (right eye), 1 h after topical 1% apoEdp
[4] = OD (right eye), 2 h after topical 1% apoEdp
[5] = OD (right eye), 3 h after topical 1% apoEdp
[6] = OS (left eye), 1 h after topical 1% apoEdp
[7] = OS (left eye), 2 h after topical 1% apoEdp
[8] = OS (left eye), 3 h after topical 1% apoEdp

## CC(=O)N[C@@H](CC(C)C)C(=O)N[C@@H](CCCNC(=N)N)C(=O)N[C@@H](CCCCN)C(=O)N[C@@H](CC(C)C)C(=O)N[C@@H](CCCNC(=N)N)C(=O)N[C@@H](CCCCN)C(=O)N[C@@H](CCCNC(=N)N)C(=O)N[C@@H](CC(C)C)C(=O)N[C@@H](CC(C)C)C(=O)N[C@@H](CC(C)C)C(=O)N[C@@H](CCCNC(=N)N)C(=O)N[C@@H](CCCCN)C(=O)N[C@@H](CC(C)C)C(=O)N[C@@H](CCCNC(=N)N)C(=O)N[C@@H](CCCCN)C(=O)N[C@@H](CCCNC(=N)N)C(=O)N[C@@H](CC(C)C)C(=O)N[C@@H](CC(C)C)C(N)=O [apoEdp, Ac-LRKLRKRLLLRKLRKRLL-amide] (Ac-LRKLRKRLLLRKLRKRLL-NH2)
[1]; [2]
  Meas'd conc.: *
  Total: *
[1]; [3]
  Meas'd conc.: 0.022 µg/mL
  Total: 22.2 ng
[1]; [4]
  Meas'd conc.: 0.006 µg/mL
  Total: 5.9 ng
[1]; [5]
  Meas'd conc.: 0.036 µg/mL
  Total: 36.3 ng
[1]; OS (left eye), 0 h after topical 1% apoEdp
  Total: *
[1]; OS (left eye), 0 h after topical 1% apoEdp in PBS, pooled aqueous and vitreous humor
  Meas'd conc.: *
[1]; [6]
  Meas'd conc.: *
  Total: *
[1]; [7]
  Meas'd conc.: 0.004 µg/mL
  Total: 3.89 ng
[1]; [8]
  Meas'd conc.: 0.058 µg/mL
  Total: 58.08 ng
[1]; topical 1% apoEdp
  Detection of topically-applied apoEdp inside the eye (cornea penetration): detected inside the eye in as little as one hour after application
MMP2
  Expression of MMP2 in retina: dramatically reduced
